# From patent publication EP1137645B1, “ALPHA-METHYLBENZYL-CONTAINING THIOUREA INHIBITORS OF HERPES VIRUSES CONTAINING A […] GROUP” (Wyeth, priority 1998, dated 2000)
# Like-named read-outs stand apart in the source and are kept apart here.
# Columns and labels:
# [1] = system: HCMV recombinant mutant virus whose genome contains the prokaryotic beta-glucuronidase gene; test: microbe, parasite or virus in culture; assay type: cell-based, human cytomegalovirus; details: Human betaherpesvirus 5, Fibroblast
# Outline: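 Antiviral IC50 estimated from reduced reporter activity across compound amounts: lysates prepared 96 h after infection were tested with p-nitrophenyl- or methylumbelliferyl-glucuronide. Cells were human foreskin fibroblasts, infected alongside inhibitor with HCMV (e.g. RV145) expressing viral promoter-driven beta-glucuronidase.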
# HSV- I = test: HSV antiviral (ELISA) assay; assay type: cell-based; details: read-out: IC50 (ug/ml) HSV
# Outline: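 IC50 from fluorescence versus untreated control in a cell ELISA: anti-glycoprotein D antibody, β-galactosidase-conjugated secondary, 4-methyl umbelliferone read at 365/450 nm. Vero cells (2% FBS DMEM) received compound 30 min pre-infection with HSV-1 at MOI 0.006, fixed ~24 h post-infection.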
# VZV strain Ellen = test: VZV antiviral (ELISA) assay; assay type: cell-based; details: for IC50: read-out: IC50 (ug/ml) VZV
# Outline: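 HFF cells infected with VZV Ellen at multiplicity below 0.1 overnight, then mixed infected/uninfected cells seeded with compound in DMEM/2% FBS and incubated three days at 37°C, 5% CO2.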
# [2] = read-out: IC50 ug/ml HCMV, HCMV, human foreskin fibroblasts
# [3] = Human alphaherpesvirus 3, HFF, read-out: % inhibition 10 ug/ml VZV
# [4] = Human alphaherpesvirus 3, read-out: % inhibition 10 ug/ml VZV, 10 ug/ml, VZV strain Ellen, HFF cells, ELISA
# [5] = Human alphaherpesvirus 3, VZV strain Ellen, HFF cells, ELISA
smiles,measurement,setting,value
"Nc1ccc(Cl)cc1NC(=S)Nc1ccc(NC(=O)c2ccccc2F)cc1 [Example 437, N-{4-[3-(2-Amino-5-chloro-phenyl)-thioureido]-phenyl}-2-fluoro-benzamide]",IC50,[1]; [2],> 10 µg/mL
same,IC50,HSV- I; Vero,0.05 µg/mL
same,inhibition at 10 µg/mL,VZV strain Ellen; [3],0%
same,IC50,"VZV strain Ellen; Human alphaherpesvirus 3, HFF",8 µg/mL
"Nc1cc(Cl)cc(NC(=S)Nc2ccc(NC(=O)c3ccccc3F)cc2)c1 [Example 442, N-{4-[3-(3-Amino-5-chloro-phenyl)-thioureido]-phenyl}-2-fluoro-benzamide]",IC50,[1]; [2],2 µg/mL
same,IC50,"HSV- I; HSV- I, Vero cells, ELISA",1 µg/mL
same,inhibition at 10 µg/mL,VZV strain Ellen; [3],81%
same,IC50,"VZV strain Ellen; Human alphaherpesvirus 3, HFF",8 µg/mL
"CC(O)c1cccc(NC(=S)Nc2ccc(NC(=O)c3ccccc3F)cc2)c1 (centres unmarked) [Example 448, 2-Fluoro-N-(4-{3-[3-(1-hydroxy-ethyl)-phenyl]-thioureido}-phenyl)-benzamide]",IC50,[1]; read-out: IC50 ug/ml HCMV,9 µg/mL
same,IC50,"HSV- I; HSV- I, Vero cells, ELISA",> 10 µg/mL
same,inhibition at 10 µg/mL,VZV strain Ellen; [4],0%
same,IC50,VZV strain Ellen; [5],> 10 µg/mL
"CC(C)c1cccc(NC(=S)Nc2ccc(NC(=O)c3ccccc3F)cc2)c1 [Example 452, 2-Fluoro-N-{4-[3-(3-isopropyl-phenyl)-thioureido]-phenyl}-benzamide]",IC50,[1]; [2],2 µg/mL
same,IC50,"HSV- I; HSV- I, Vero cells, ELISA",4 µg/mL
same,inhibition at 10 µg/mL,VZV strain Ellen; [3],75%
same,IC50,"VZV strain Ellen; Human alphaherpesvirus 3, HFF",1 µg/mL
"CN(C)c1cccc(NC(=S)Nc2ccc(NC(=O)c3ccccc3F)cc2)c1 [Example 454, N-{4-[3-(3-Dimethylamino-phenyl)-thioureido]-phenyl}-2-fluoro-benzamide]",IC50,[1]; [2],4 µg/mL
same,IC50,"HSV- I; HSV- I, Vero cells, ELISA",1.5 µg/mL
same,inhibition at 10 µg/mL,VZV strain Ellen; [3],55%
same,IC50,"VZV strain Ellen; Human alphaherpesvirus 3, HFF",> 10 µg/mL
"COc1cc(C)c(Cl)cc1NC(=S)Nc1ccc(NC(=O)c2ccccc2F)cc1Cl [Example 458, N-{3-Chloro-4-[3-(5-chloro-2-methoxy-4-methyl-phenyl)-thioureido]-phenyl}-2-fluoro-benzamide]",IC50,[1]; [2],> 10 µg/mL
same,IC50,"HSV- I; HSV- I, Vero cells, ELISA",0.06 µg/mL
same,inhibition at 10 µg/mL,VZV strain Ellen; [3],25%
same,IC50,"VZV strain Ellen; Human alphaherpesvirus 3, HFF",> 10 µg/mL
"Cc1ccc(NC(=S)Nc2ccc(NC(=O)c3ccccc3F)cc2Cl)cc1Cl [Example 459, N-{3-Chloro-4-[3-(3-chloro-4-methyl-phenyl)-thioureido]-phenyl}-2-fluoro-benzamide]",IC50,[1]; [2],> 10 µg/mL
same,IC50,"HSV- I; HSV- I, Vero cells, ELISA",0.12 µg/mL
same,inhibition at 10 µg/mL,VZV strain Ellen; [3],25%
same,IC50,"VZV strain Ellen; Human alphaherpesvirus 3, HFF",> 10 µg/mL
"CSc1ccc(NC(=S)Nc2ccc(NC(=O)c3ccccc3F)cc2Cl)cc1Cl [Example 460, N-{3-Chloro-4-[3-(3-chloro-4-methylsulfanyl-phenyl)-thioureido]-phenyl}-2-fluoro-benzamide]",IC50,[1]; [2],2 µg/mL
same,IC50,"HSV- I; HSV- I, Vero cells, ELISA",0.09 µg/mL
same,inhibition at 10 µg/mL,VZV strain Ellen; [3],50%
same,IC50,"VZV strain Ellen; Human alphaherpesvirus 3, HFF",> 10 µg/mL
"N#Cc1cccc(NC(=S)Nc2ccc(NC(=O)c3ccccc3F)cc2)c1 [Example 461, N-{4-[3-(3-Cyano-phenyl)-thioureido]-phenyl}-2-fluoro-benzamide]",IC50,[1]; read-out: IC50 ug/ml HCMV,> 10 µg/mL
same,IC50,"HSV- I; HSV- I, Vero cells, ELISA",> 10 µg/mL
same,inhibition at 10 µg/mL,VZV strain Ellen; [4],33%
same,IC50,VZV strain Ellen; [5],> 10 µg/mL
"NNC(=O)c1cccc(NC(=S)Nc2ccc(NC(=O)c3ccccc3F)cc2)c1 [Example 463, 2-Fluoro-N-{4-[3-(3-hydrazinocarbonyl-phenyl)-thioureido]-phenyl}-benzamide]",IC50,[1]; read-out: IC50 ug/ml HCMV,> 10 µg/mL
same,IC50,"HSV- I; HSV- I, Vero cells, ELISA",> 10 µg/mL
same,inhibition at 10 µg/mL,VZV strain Ellen; [4],19%
same,IC50,VZV strain Ellen; [5],> 10 µg/mL
"Nc1c(Cl)cccc1NC(=S)Nc1ccc(NC(=O)c2c(F)cccc2F)cc1 [Example 465, N-{4-[3-(2-Amino-3-chloro-phenyl)-thioureido]-phenyl}-2,6-difluoro-benzamide]",IC50,[1]; [2],> 10 µg/mL
same,IC50,"HSV- I; HSV- I, Vero cells, ELISA",> 10 µg/mL
same,inhibition at 10 µg/mL,VZV strain Ellen; [3],31%
same,IC50,"VZV strain Ellen; Human alphaherpesvirus 3, HFF",> 10 µg/mL
"O=C(Nc1ccc(NC(=S)Nc2cccc(O)c2)cc1)c1ccccc1F [Example 475, 2-Fluoro-N-{4-[3-(3-hydroxy-phenyl)-thioureido]-phenyl}-benzamide]",IC50,[1]; read-out: IC50 ug/ml HCMV,> 10 µg/mL
same,IC50,"HSV- I; HSV- I, Vero cells, ELISA",5 µg/mL
same,inhibition at 10 µg/mL,VZV strain Ellen; [4],28%
same,IC50,VZV strain Ellen; [5],> 10 µg/mL
"O=C(Nc1ccc(NC(=S)Nc2cccc(CO)c2)cc1)c1ccccc1F [Example 476, 2-Fluoro-N-{4-[3-(3-hydroxymethyl-phenyl)-thioureido]-phenyl}-benzamide]",IC50,[1]; read-out: IC50 ug/ml HCMV,> 10 µg/mL
same,IC50,"HSV- I; HSV- I, Vero cells, ELISA",10 µg/mL
same,inhibition at 10 µg/mL,VZV strain Ellen; [4],21%
same,IC50,VZV strain Ellen; [5],> 10 µg/mL
"CC(=O)Nc1cccc(NC(=S)Nc2ccc(NC(=O)c3ccccc3F)cc2)c1 [Example 477, N-{4-[3-(3-Acetylamino-phenyl)-thioureido]-phenyl}-2-fluoro-benzamide]",IC50,[1]; read-out: IC50 ug/ml HCMV,> 10 µg/mL
same,IC50,"HSV- I; HSV- I, Vero cells, ELISA",> 10 µg/mL
same,inhibition at 10 µg/mL,VZV strain Ellen; [4],15%
same,IC50,VZV strain Ellen; [5],> 10 µg/mL
"O=C(Nc1ccc(NC(=S)Nc2ccc3scnc3c2)cc1)c1ccccc1F [Example 484, N-[4-(3-Benzothiazol-5-yl-thioureido)-phenyl]-2-fluoro-benzamide]",IC50,[1]; [2],> 10 µg/mL
same,IC50,"HSV- I; HSV- I, Vero cells, ELISA",0.4 µg/mL
same,inhibition at 10 µg/mL,VZV strain Ellen; [3],28%
same,IC50,"VZV strain Ellen; Human alphaherpesvirus 3, HFF",> 10 µg/mL
"COc1cccc(NC(=S)Nc2ccc(NC(=O)c3ccccc3F)cc2)c1 [Example 487, 2-Fluoro-N-{4-[3-(3-methoxy-phenyl)-thioureido]-phenyl}-benzamide]",IC50,[1]; read-out: IC50 ug/ml HCMV,10 µg/mL
same,IC50,"HSV- I; HSV- I, Vero cells, ELISA",4 µg/mL
same,inhibition at 10 µg/mL,VZV strain Ellen; [4],48%
same,IC50,VZV strain Ellen; [5],> 10 µg/mL
"CN(C)c1ccc(Cl)cc1NC(=S)Nc1ccc(NC(=O)c2ccccc2F)cc1 [Example 490, N-{4-[3-(5-Chloro-2-dimethylamino-phenyl)-thioureido]-phenyl}-2-fluoro-benzamide]",IC50,[1]; [2],2.5 µg/mL
same,IC50,"HSV- I; HSV- I, Vero cells, ELISA",1 µg/mL
same,inhibition at 10 µg/mL,VZV strain Ellen; [3],68%
same,IC50,"VZV strain Ellen; Human alphaherpesvirus 3, HFF",> 10 µg/mL
"CC(N=[N+]=[N-])c1ccc(NC(=S)Nc2ccc(NC(=O)c3ccccc3F)cc2)cc1Cl (centres unmarked) [Example 492, N-(4-{3-[4-(1-Azido-ethyl)-3-chloro-phenyl]-thioureido}-phenyl)-2-fluoro-benzamide]",IC50,[1]; [2],2 µg/mL
same,IC50,"HSV- I; HSV- I, Vero cells, ELISA",> 10 µg/mL
same,inhibition at 10 µg/mL,VZV strain Ellen; [3],32%
same,IC50,"VZV strain Ellen; Human alphaherpesvirus 3, HFF",> 10 µg/mL
"O=C(Nc1ccc(NC(=S)Nc2ccc3[nH]cnc3c2)cc1)c1ccccc1F [Example 496, N-{4-[3-(1H-Benzoimidazol-5-yl)-thioureido]-phenyl}-2-fluoro-benzamide]",IC50,[1]; read-out: IC50 ug/ml HCMV,10 µg/mL
same,IC50,"HSV- I; HSV- I, Vero cells, ELISA",> 10 µg/mL
same,inhibition at 10 µg/mL,VZV strain Ellen; [4],25%
same,IC50,VZV strain Ellen; [5],> 10 µg/mL
"Cc1nc2cc(NC(=S)Nc3ccc(NC(=O)c4ccccc4F)cc3)ccc2[nH]1 [Example 497, 2-Fluoro-N-{4-[3-(2-methyl-1H-benzoimidazol-5-yl)-thioureido]-phenyl}-benzamide]",IC50,[1]; read-out: IC50 ug/ml HCMV,10 µg/mL
same,IC50,"HSV- I; HSV- I, Vero cells, ELISA",> 10 µg/mL
same,inhibition at 10 µg/mL,VZV strain Ellen; [4],10%
same,IC50,VZV strain Ellen; [5],> 10 µg/mL
"Nc1nccc(-c2ccc(NC(=S)Nc3ccc(NC(=O)c4ccccc4F)cc3)cc2Cl)n1 [Example 502, N-(4-{3-[4-(2-Amino-pyrimidin-4-yl)-3-chloro-phenyl]-thioureido}-phenyl)-2-fluoro-benzamide]",IC50,[1]; [2],1.8 µg/mL
same,IC50,"HSV- I; HSV- I, Vero cells, ELISA",> 10 µg/mL
same,inhibition at 10 µg/mL,VZV strain Ellen; [3],13%
same,IC50,"VZV strain Ellen; Human alphaherpesvirus 3, HFF",> 10 µg/mL
"CN(C)c1c(Cl)cccc1NC(=S)Nc1ccc(NC(=O)c2c(F)cccc2F)cc1 [Example 504, N-{4-[3-(3-Chloro-2-dimethylamino-phenyl)-thioureido]-phenyl}-2,6-difluoro-benzamide]",IC50,[1]; [2],2 µg/mL
same,IC50,"HSV- I; HSV- I, Vero cells, ELISA",6 µg/mL
same,inhibition at 10 µg/mL,VZV strain Ellen; [3],99%
same,IC50,"VZV strain Ellen; Human alphaherpesvirus 3, HFF",4.5 µg/mL
"O=C(Nc1ccc(NC(=S)NCc2cccc(Cl)c2)cc1)c1ccccc1F [Example 511, N-{4-[3-(3-Chloro-benzyl)-thioureido]-phenyl}-2-fluoro-benzamide]",IC50,[1]; [2],> 10 µg/mL
same,IC50,"HSV- I; HSV- I, Vero cells, ELISA",> 10 µg/mL
same,inhibition at 10 µg/mL,VZV strain Ellen; [3],10%
same,IC50,"VZV strain Ellen; Human alphaherpesvirus 3, HFF",> 10 µg/mL
